Results: ChEMBL document CHEMBL4043252, “Discovery and structure-based design of 4,6-diaminonicotinamides as potent and selective IRAK4 inhibitors” (Bioorg Med Chem Lett, 2017)

Columns and labels:
physchem = settings: PAMPA, pH 7.4
Liver = settings: human, microsomes
in vitro = settings: mouse, liver microsomes

SMILES	Papp (physchem) [×10⁻⁶ cm/s]	Stability (Liver) [%]	remaining at 10 min (in vitro) [%]
CNC(=O)c1cnc(Nc2ccc(OC)c(F)c2)cc1N[C@@H](c1ccccc1)[C@H](O)CO	6.3	80	20
CNC(=O)c1cnc(Nc2ccc3ncsc3c2)cc1N[C@@H](c1ccccc1)[C@H](O)CO	1.9	90	21 to 31
